The source of these data is paper doi:10.1101/2021.10.07.463234v2 (biorxiv, 2021).

Where a name gives a salt, the structure may show the parent alone.

The first experiment concerns the target SARS-CoV-2 Mac1 (Severe acute respiratory syndrome coronavirus 2, UniProt P0DTD1). In words: biochemical. The note with it: 100 µM; inhibitor.
In the case of `CN1[C@@H]2CC[C@H]1C[C@@H](OC(=O)c1c[nH]c3ccccc13)C2` [Tropisetron], the %inhibition (in general, the percentage by which the read-out fell short of the control) was 6.575%.

With `CC(=O)Oc1cc2c(s1)CCN(C(C(=O)C1CC1)c1ccccc1F)C2` (stereo not drawn) [Prasugrel], the “%inhibition” value was 25.16%.

The same experiment, now with this note: read-out: %inhibition.
For the molecule `COc1c(-c2ccc3cc(NS(C)(=O)=O)ccc3c2)cc(-n2ccc(=O)[nH]c2=O)cc1C(C)(C)C` [Dasabuvir(ABT-333)], the inhibition (as a rule, how much of the control response was suppressed) at 100 µM turned out to be 0.42%.

Take `Cc1c(C(=O)Nc2ccc(N3C[C@@H](C)O[C@@H](C)C3)nc2)cccc1-c1ccc(OC(F)(F)F)cc1` [Sonidegib (Erismodegib, NVP-LDE225)]: the inhibition at 100 µM turned out to be 0%.

For the molecule `O=c1cc[nH]c(=O)[nH]1` [Uracil], the inhibition at 100 µM was determined as 0%.

Turning to `Nc1ccc2cc3ccc(N)cc3nc2c1` [Proflavine Hemisulfate], the inhibition at 100 µM was determined as 0%.

With `CCS(=O)(=O)N1CC(CC#N)(n2cc(-c3ncnc4[nH]ccc34)cn2)C1` [Baricitinib (LY3009104, INCB028050)], the inhibition at 100 µM was determined as 28.1%.

As to `Cc1nnc(C(C)C)n1[C@@H]1C[C@H]2CC[C@@H](C1)N2CC[C@H](NC(=O)C1CCC(F)(F)CC1)c1ccccc1` [Maraviroc], the inhibition at 100 µM came to 24.2%.

On to `O[C@H](CNC[C@@H](O)[C@H]1CCc2cc(F)ccc2O1)[C@@H]1CCc2cc(F)ccc2O1` [Nebivolol HCl], for which the inhibition at 100 µM worked out at 0%.

For `COc1ccc(-c2nc3cc(C4=NNC(=O)CC4C)ccc3[nH]2)cc1` (stereo not drawn) [Pimobendan], the inhibition at 100 µM is 13%.

Regarding `CS(=O)(=O)c1ccc([C@@H](O)[C@@H](CF)NC(=O)C(Cl)Cl)cc1` [Florfenicol], the inhibition at 100 µM is 30.4%.

Consider `CCN1CCN(Cc2ccc(Nc3ncc(F)c(-c4cc(F)c5nc(C)n(C(C)C)c5c4)n3)nc2)CC1` [Abemaciclib], for which the inhibition at 100 µM amounted to 4.16%.

`C#C[C@]1(O)CC[C@H]2[C@@H]3CCC4=CC(=O)CC[C@@H]4[C@H]3C(=C)C[C@@]21CC` [Etonogestrel]: the inhibition at 100 µM was 0%.

`COc1cc(/C=C/C(=O)N2CCN(CC(=O)N3CCCC3)CC2)cc(OC)c1OC` [Cinepazide maleate]: the inhibition at 100 µM amounted to 24.7%.

Consider `CC(=O)Oc1ccc(C(=C2CCCCC2)c2ccc(OC(C)=O)cc2)cc1` [Cyclofenil], for which the inhibition at 100 µM was determined as 11.6%.

For `O=C(O)c1nn(Cc2ccc(Cl)cc2Cl)c2ccccc12` [Lonidamine], the inhibition at 100 µM turned out to be 7.38%.

On to `CCN(CC)C(=O)/C(C#N)=C/c1cc(O)c(O)c([N+](=O)[O-])c1` [Entacapone], for which the inhibition at 100 µM worked out at 0%.

With `C1N2CN3CN1CN(C2)C3` [Methenamine], the inhibition at 100 µM was 1.76%.

For `C[N+](C)(C)CCOP(=O)(O)OP(=O)([O-])OC[C@H]1O[C@@H](n2ccc(N)nc2=O)[C@H](O)[C@@H]1O` [Citicoline sodium], the inhibition at 100 µM amounted to 1.89%.

For `CC(=O)OCC(=O)[C@@]1(O)CC[C@H]2[C@@H]3CCC4=CC(=O)C=C[C@]4(C)[C@H]3[C@@H](O)C[C@@]21C` [Prednisolone Acetate], the inhibition at 100 µM is 15.9%.

As to `CC(=O)NC1CCSC1=O` (stereo not drawn) [Citiolone], the inhibition at 100 µM turned out to be 0%.

Regarding `COc1ncc(-c2ccc3nccc(-c4ccnnc4)c3c2)cc1NS(=O)(=O)c1ccc(F)cc1F` [Omipalisib (GSK2126458, GSK458)], the inhibition at 100 µM came to 7.47%.

Take `Brc1c(NC2=NCCN2)ccc2nccnc12` [Brimonidine Tartrate]: the inhibition at 100 µM stood at 19.3%.

As for `O=C(Nc1cc(Cl)cc(Cl)c1O)c1c(O)c(Cl)cc(Cl)c1Cl` [Oxyclozanide], the inhibition at 100 µM worked out at 8.75%.

For `N#Cc1ccc(Oc2ccc3c(c2)COB3O)cc1` [Crisaborole (AN2728)], the inhibition at 100 µM worked out at 10%.

`N[C@H]1C[C@@H]1c1ccccc1` [Tranylcypromine (2-PCPA) HCl]: the inhibition at 100 µM turned out to be 0%.

As for `COC[C@H]1C[C@@H](c2nc(-c3ccc4c(c3)COc3cc5c(ccc6nc([C@@H]7CC[C@H](C)N7C(=O)[C@@H](NC(=O)OC)C(C)C)[nH]c65)cc3-4)c[nH]2)N(C(=O)[C@H](NC(=O)OC)c2ccccc2)C1` [Velpatasvir], the inhibition at 100 µM is 3.54%.
